Reference: ChEMBL document CHEMBL4138299, “Discovery of 3,3'-Spiro[Azetidine]-2-oxo-indoline Derivatives as Fusion Inhibitors for Treatment of RSV Infection” (ACS Med Chem Lett, 2018)

Tests used:
[1] = Cytotoxicity against human Hep2 cells after 5 days by CCK8 assay; details: HEp-2 cells
[2] = Clearance in Balb/c mouse at 1 mg/kg, iv administered as single bolus dose by LC-MS/MS analysis; details: in vivo
[3] = Half life in Balb/c mouse at 1 mg/kg, iv administered as single bolus dose by LC-MS/MS analysis; details: in vivo
[4] = Volume of distribution in Balb/c mouse at 1 mg/kg, iv administered as single bolus dose by LC-MS/MS analysis; details: in vivo
Human orthopneumovirus [5] = experiment: (§1) Antiviral activity against human respiratory syncytial virus A2 infected in po dosed Balb/c mouse assessed as reduction in lung viral load administered once daily pretreated for 1 hr on day 0 followed by viral infection and subsequent compound dosing for 3 days measured after 1 day post last dose by plaque assay; assay type: functional, organism-based
Human orthopneumovirus [6] = experiment: as §1, with “in” for “in po dosed”, “load at 50 mg/kg, po” for “load”; assay type: functional
Human orthopneumovirus [7] = experiment: as §1, with “in” for “in po dosed”, “load at 5 mg/kg, po” for “load”; assay type: functional
Human orthopneumovirus [8] = experiment: as §1, with “in” for “in po dosed”, “load at 15 mg/kg, po” for “load”; assay type: functional
in vivo [9] = details: Balb/c, mouse, iv, 1 mg/kg
Description: AUC (0 to infinity) in Balb/c mouse at 1 mg/kg, iv administered as single bolus dose by LC-MS/MS analysis

in vivo [10] = details: Balb/c, mouse, po, 10 mg/kg
Description: Cmax in Balb/c mouse at 10 mg/kg, po administered as single dose via gavage by LC-MS/MS analysis

in vivo [11] = details: Balb/c, mouse, po, 10 mg/kg; remark: listed apart in the source
Description: Tmax in Balb/c mouse at 10 mg/kg, po administered as single dose via gavage by LC-MS/MS analysis

in vivo [12] = details: Balb/c, mouse, po, 10 mg/kg; remark: listed apart in the source
Description: AUC (0 to infinity) in Balb/c mouse at 10 mg/kg, po administered as single dose via gavage by LC-MS/MS analysis

in vivo [13] = details: Balb/c, mouse, po, 10 mg/kg; remark: listed apart in the source
Description: Oral bioavailability in Balb/c mouse at 10 mg/kg administered as single dose via gavage by LC-MS/MS analysis

Row | SMILES | CC50 at 120 h [1] | further results
1 | O=C1N(Cc2nc3cc(Br)ccc3n2CCCCO)c2ccccc2C12CS(=O)(=O)C2 | > 100 µM | 
2 | NCc1ccc2c(c1)nc(CN1C(=O)C3(CC3)c3ccccc31)n2CCCCO | > 100 µM | 
3 | O=C1N(Cc2nc3cc(C4CCCCC4)ccc3n2CCCCO)c2ccccc2C12CC2 | > 100 µM | 
4 | CN1CCC2(CC1)C(=O)N(Cc1nc3cc(Br)ccc3n1CCCCO)c1ccccc12 | > 100 µM | 
5 | Cc1c2c(nn1Cc1nc3ccccc3n1CCCCO)CCCC2 | > 100 µM | 
6 | CN1CCOC2(C1)C(=O)N(Cc1nc3cc(Br)ccc3n1CCCCO)c1ccccc12 (stereo unspecified) | > 100 µM | 
7 | O=C1N(Cc2nc3cc(Br)ccc3n2CCCCO)c2ccccc2C12CC2 | > 100 µM | 
8 | O=C1N(Cc2nc3cc(Br)ccc3n2CCCCO)c2ccccc2C12CSC2 | > 100 µM | 
9 | O=C1N(Cc2nc3cc(Br)ccc3n2CCCCO)c2ccccc2C12CCOC2 (stereo unspecified) | > 100 µM | 
10 | O=C1N(Cc2nc3ccccc3n2CCCCO)c2ccccc2C12CC2 | > 100 µM | 
11 | O=C1N(Cc2nc3cc(Br)ccc3n2CCCCO)c2ccccc2C12CNC2 | > 100 µM | 
12 | O=C1N(Cc2nc3cc(I)ccc3n2CCCCO)c2ccccc2C12CC2 | > 100 µM | 
13 | O=C1N(Cc2nc3ccccc3n2CCCCO)CN(c2ccccc2)C12CCNCC2 | > 100 µM | 
14 | OCCCCn1c(Cn2ncc3ccccc32)nc2ccccc21 | > 100 µM | 
15 | O=C1N(Cc2nc3cc(Br)ccc3n2CCCCO)c2ccccc2C12CCN(C1COC1)CC2 | > 100 µM | 
16 | CC1(C)C(=O)N(Cc2nc3ccccc3n2CCCCO)c2ccccc21 | > 100 µM | 
17 | CC1CC(=O)N(Cc2nc3ccccc3n2CCCCO)c2ccccc2N1 (stereo unspecified) | > 100 µM | 
18 | Cc1cc(=O)n(Cc2nc3ccccc3n2CCCCO)c2ccccc12 | > 100 µM | 
19 | Cc1nn(Cc2nc3ccccc3n2CCCCO)c2c1CCCC2 | > 100 µM | 
20 | CC(C)OC(=O)N1CCC2(C1)C(=O)N(Cc1nc3cc(Br)ccc3n1CCCCO)c1ccccc12 (stereo unspecified) | > 100 µM | 
21 | Cc1nn(Cc2nc3ccccc3n2CCCCO)c2ccccc12 | > 100 µM | 
22 | OCCCCn1c(Cn2ccc3ccncc32)nc2ccccc21 | > 100 µM | 

Row | SMILES | CC50 at 120 h [1] | further results
23 | OCCCCn1c(Cn2c3c(c4ccccc42)CCNC3)nc2ccccc21 | > 100 µM | 
24 | N#Cc1ccc2c(c1)nc(CN1C(=O)C3(CC3)c3ccccc31)n2CCCCO | > 100 µM | 
25 | O=c1oc2ccccc2n1Cc1nc2ccccc2n1CCCCO | > 100 µM | 
26 | O=C1N(Cc2nc3cc(C(F)(F)F)ccc3n2CCCCO)c2ccccc2C12CC2 | > 100 µM | 
27 | O=C1N(Cc2nc3cc(Cl)ccc3n2CCCCO)c2ccccc2C12CC2 | > 100 µM | 
28 | CS(=O)(=O)N1CCC2(C1)C(=O)N(Cc1nc3cc(Br)ccc3n1CCCCO)c1ccccc12 (stereo unspecified) | > 100 µM | 
29 | CS(=O)(=O)N1CC2(C1)C(=O)N(Cc1nc3cc(Br)ccc3n1CCCCO)c1ccccc12 | > 100 µM | 
30 | N#Cc1cn(Cc2nc3ccccc3n2CCCCO)c2ccccc12 | > 100 µM | 
31 | O=C1N(Cc2nc3cc(Br)ccc3n2CCCCO)c2ccccc2C12CCOCC2 | > 100 µM | 
32 | O=C1N(Cc2nc3ccccc3n2CCCCO)c2cc(F)ccc2C12CC2 | > 100 µM | 
33 | CC(C)C(=O)N1CCC2(C1)C(=O)N(Cc1nc3cc(Br)ccc3n1CCCCO)c1ccccc12 (stereo unspecified) | > 100 µM | 
34 | OCCCCn1c(Cn2ncc3ccncc32)nc2ccccc21 | > 100 µM | 
35 | O=C1N(Cc2nc3ccccc3n2CCCCO)c2cnccc2C12CC2 | > 100 µM | 
36 | O=C1NC(=O)C2(N1)C(=O)N(Cc1nc3cc(Br)ccc3n1CCCCO)c1ccccc12 (stereo unspecified) | > 100 µM | 
37 | CC(C)OC(=O)N1CC2(C1)C(=O)N(Cc1nc3cc(Br)ccc3n1CCCCO)c1ccccc12 | > 100 µM | clearance [2]: 28 mL/min/kg; half-life [3]: 84 min; Vd [4]: 1.6 L/kg; Activity (Human orthopneumovirus [5]): Dose-dependent effect; log(activity) (Human orthopneumovirus [6]): 3.91; log(activity) (Human orthopneumovirus [7]): 1.64; log(activity) (Human orthopneumovirus [8]): 2.05; AUC(0-inf) (in vivo [9]): 1.13 µM·h; Cmax (in vivo [10]): 3.32 µM; Tmax (in vivo [11]): 15 min; AUC(0-inf) (in vivo [12]): 8.08 µM·h; bioavailability (in vivo [13]): 71%
38 | CC(C)C(=O)N1CC2(C1)C(=O)N(Cc1nc3cc(Br)ccc3n1CCCCO)c1ccccc12 | > 100 µM | 
39 | CN1CC2(C1)C(=O)N(Cc1nc3cc(Br)ccc3n1CCCCO)c1ccccc12 | > 100 µM | 
40 | OCCCCn1c(Cn2c(-c3cscn3)nc3ccccc32)nc2ccccc21 | > 100 µM | 
41 | OCCCCn1c(Cn2c(C(F)(F)F)nc3ccccc32)nc2ccccc21 | > 100 µM | 
42 | Cc1ccc2c(c1)nc(CN1C(=O)C3(CC3)c3ccccc31)n2CCCCO | > 100 µM | 
43 | O=C1N(Cc2nc3cc(F)ccc3n2CCCCO)c2ccccc2C12CC2 | > 100 µM | 
44 | Cc1nc(=O)n(Cc2nc3ccccc3n2CCCCO)c2ccccc12 | > 100 µM | 
